Test results as given in patent US12497610B2, “Functional genomics using CRISPR-CAS systems for saturating mutagenesis of non-coding elements, compositions, methods, libraries and applications thereof” (THE BROAD INSTITUTE, INC., priority 2015, dated 2025).

Tested on: human BCL11A erythroid enhancer
Test: Tiled pooled CRISPR-Cas9 screen for in situ functional mapping of the human BCL11A erythroid enhancer (HbF-high/HbF-low sort, sgRNA deep sequencing)
Format: cell-based
Settings: for Enrichment Score: HbF enrichment, human library NGG and NGG RC sgRNAs filtered for enrichment score >0.259; for Dropout Score: human library sgRNAs that produced HbF enrichment over 0.259
Description: Every 20-mer sequence upstream of an NGG or NAG PAM sequence on the sense or anti-sense strand was identified for both the human and mouse orthologous +55, +58, and +62 DNase hypersensitive site (DHS) as well as BCL11A/BCL11a exon 2. Relative to the human hg 19 reference genome, a reference was used with the following substitutions to approximate a common low-HbF associated haplotype: rs1427407-G, rs1896293-T, rs6706648-T, rs6738440-G, rs7606173-C. Each of the sgRNA oligos were synthesized as previously described (37,41,64) and cloned using a Gibson Assembly master mix (New England Biolabs) into lentiGuide-Puro (Addgene plasmid ID 52963) BsmBI digested, PCR purified, and dephosphorylated. Gibson Assembly products were transformed to electrocompetent E. cloni cells (Lucigen). Sufficient colonies were isolated to ensure 90X library coverage for both human and mouse libraries. Plasmid libraries were deep sequenced (described below) to confirm representation.
Tiled Pooled CRISPR-Cas9 Screen for In Situ Functional Mapping the Human BCL11A Erythroid Enhancer.
HUDEP clone 2 (HUDEP-2) was utilized as previously described by from Nakamura and colleagues (49). HUDEP-2 cells were expanded in StemSpan SFEM (Stem Cell Technologies) supplemented with 10^−6 M dexamethasone (Sigma), 100 ng/mL human stem cell factor (SCF) (R&D), 3 IU/mL erythropoietin (Amgen), 1% L-glutamine (Life Technologies), and 2% penicillin/streptomycin (Life Technologies). 1 μg/mL doxycycline (Sigma) was included in the culture to induce expression of the human papilloma virus type 16 E6/E7 genes (49). HUDEP-2 cells were differentiated in Iscove's Modified Dulbecco's Medium (IMDM) supplemented with 330 μg/mL halo-transferrin (Sigma), 10 μg/mL recombinant human insulin (Sigma), 2 IU/mL heparin (Sigma), 5% human solvent detergent pooled plasma AB (Rhode Island Blood Center), 3 IU/mL erythropoietin (Amgen), 100 ng/mL human stem cell factor (SCF) (R&D), 1 μg/mL doxycycline (Sigma), 1% L-glutamine (Life Technologies), and 2% penicillin/streptomycin (Life Technologies).
HUDEP-2 cells with stable Cas9 expression were transduced at low multiplicity with the human sgRNA library lentivirus pool while in expansion medium. […] Cell numbers were maintained throughout the experiment at levels adequate to exceed 1000× representation of the library. 10 μg/mL blasticidin (Sigma) and 1 μg/mL puromycin (Sigma) were added 24 hours after transduction to select for lentiviral library integrants in cells with Cas9. Cells were cultured in expansion media for one week followed by differentiation media for an additional week.
Intracellular staining was performed by fixing cells with 0.05% glutaraldehyde (grade II) (Sigma) for 10 minutes at room temperature. Cells were centrifuged for 5 minutes at 350 g and then resuspended in 0.1% Triton-X100 (Life Technologies) for 5 minutes at room temperature for permeabilization. Triton X-100 was diluted with phosphate buffered saline (PBS) and then centrifuged at 350 g for 15 minutes. Cells were stained with anti-human antibodies for HbF (clone HbF-1 with FITC or APC conjugation; Life Technologies) and B-hemoglobin antibody (clone 37-8 with PerCP-Cy5 or PE conjugation; Santa Cruz) for 20 minutes in the dark. Cells were washed to remove unbound antibody prior to FACS analysis. 0.2 μg HbF and 2 μg of HbA CB-hemoglobin) antibodies were used per 5 million cells. Control cells exposed to a nontargeting sgRNA sample and BCL11A exon 2 were used as negative and positive controls respectively to establish flow cytometry conditions. Populations of cells with the top and bottom 10% of expression of HbF were sorted by FACS.
After sorting the HbF-high and HbF-low pools, library preparation and deep sequencing was performed as previously described (37). Briefly, genomic DNA was extracted using the Qiagen Blood and Tissue kit. […]

Row | Substance | Enrichment Score | Dropout Score
1 | BCL_01640_H_D58 (guide TCGGTGGCCGTTTGCCCAGGNGGRC; listed as DNA, chemistry not given here) | 0.3658 | −1.013
2 | BCL_01623_H_D58 (guide AAGGGTTTGGCCTCTGATTANGGRC; listed as DNA, chemistry not given here) | 1.285 | −0.2669
3 | BCL_02006_H_exon2 (guide TCTGGCACTGCCCACAGGTGNGGRC; listed as DNA, chemistry not given here) | 1.489 | −2.029
4 | BCL_01454_H_D55 (guide GGGTCGCGGTAGGGAGTTGTNGGRC; listed as DNA, chemistry not given here) | 0.3579 | −0.5577
5 | BCL_00258_H_exon2 (guide GCCAGATGAACTTCCCATTGNGG; listed as DNA, chemistry not given here) | 1.593 | −1.899
6 | BCL_01619_H_D58 (guide TTTTATCACAGGCTCCAGGANGGRC; listed as DNA, chemistry not given here) | 1.662 | −0.3147
7 | BCL_02009_H_exon2 (guide TCCCCTTCTGGAGCTCCCAANGGRC; listed as DNA, chemistry not given here) | 2.108 | −1.693
8 | BCL_01992_H_exon2 (guide GACCTGGATGCCAACCTCCANGGRC; listed as DNA, chemistry not given here) | 1.234 | −0.6955
9 | BCL_01999_H_exon2 (guide ATCTCGATTGGTGAAGGGGANGGRC; listed as DNA, chemistry not given here) | 0.6204 | −0.7601
10 | BCL_00262_H_exon2 (guide CCTCTGCTTAGAAAAAGCTGNGG; listed as DNA, chemistry not given here) | 1.001 | −1.352
11 | BCL_01627_H_D58 (guide TTGGCCTCTGATTAGGGTGGNGGRC; listed as DNA, chemistry not given here) | 0.3054 | −0.2564
12 | BCL_01483_H_D55 (guide GTCATCCTCGGCCAATGAAGNGGRC; listed as DNA, chemistry not given here) | 0.4318 | −0.4056
13 | BCL_00031_H_D55 (guide CTGGCAGACCCTCAAGAGCANGG; listed as DNA, chemistry not given here) | 0.3216 | −1.354
14 | BCL_00266_H_exon2 (guide TCCCGTGGAGGTTGGCATCCNGG; listed as DNA, chemistry not given here) | 0.5889 | −0.1802
15 | BCL_02001_H_exon2 (guide CCACAGCTTTTTCTAAGCAGNGGRC; listed as DNA, chemistry not given here) | 0.4913 | −0.2495
16 | BCL_00082_H_D55 (guide TCACAGGGTGTGCCCTGAGANGG; listed as DNA, chemistry not given here) | 0.4174 | −1.087
17 | BCL_01828_H_D62 (guide CTCTTCTCCAGGGTGTGGGGNGGRC; listed as DNA, chemistry not given here) | 0.3485 | −0.391
18 | BCL_00241_H_D62 (guide CTCAGCTACTCGGGAGGCTGNGG; listed as DNA, chemistry not given here) | 0.6113 | −9.052
19 | BCL_00240_H_D62 (guide TGTAATCTCAGCTACTCGGGNGG; listed as DNA, chemistry not given here) | 0.79 | −8.691

Row | Substance | Enrichment Score | Dropout Score
20 | BCL_00181_H_D58 (guide CCTTCCGAAAGAGGCCCCCCNGG; listed as DNA, chemistry not given here) | 0.3399 | 0.2621
21 | BCL_00108_H_D55 (guide TCTGAGGAGCTAGAGACTTGNGG; listed as DNA, chemistry not given here) | 0.3065 | −0.6499
22 | BCL_00254_H_exon2 (guide GATCATGACCTCCTCACCTGNGG; listed as DNA, chemistry not given here) | 2.198 | −2.256
23 | BCL_02011_H_exon2 (guide CTGGAGCTCCCAACGGGCCGNGGRC; listed as DNA, chemistry not given here) | 0.6044 | 0.7912
24 | BCL_01801_H_D62 (guide CCCCGGCCTCCCAAAGTGCTNGGRC; listed as DNA, chemistry not given here) | 0.6113 | −8.0566
25 | BCL_02007_H_exon2 (guide GGCACTGCCCACAGGTGAGGNGGRC; listed as DNA, chemistry not given here) | 3.351 | −1.662
26 | BCL_01438_H_D55 (guide TACCAGGATGATGCAATGCTNGGRC; listed as DNA, chemistry not given here) | 0.9129 | −0.4122
27 | BCL_01448_H_D55 (guide TGTGCTTGGTCGGCACTGATNGGRC; listed as DNA, chemistry not given here) | 1.348 | −0.4953
28 | BCL_01641_H_D55 (guide CGGTGGCCGTTTGCCCAGGGNGGRC; listed as DNA, chemistry not given here) | 0.282 | −0.4633
29 | BCL_00131_H_D58 (guide TGGGGAGAGAAGAGTGGAAANGG; listed as DNA, chemistry not given here) | 0.2698 | −0.3654
30 | BCL_00058_H_D55 (guide CCTCTATGTAGACGGGTGTGNGG; listed as DNA, chemistry not given here) | 0.3237 | −0.4848
31 | BCL_00210_H_D62 (guide TAAACAGCCACCCCACACCCNGG; listed as DNA, chemistry not given here) | 0.7026 | −0.8705
32 | BCL_00012_H_D55 (guide AAGTGAGCCAGGTGATAGAANGG; listed as DNA, chemistry not given here) | 0.3511 | −0.01983
33 | BCL_00027_H_D55 (guide CCCATGGAGGTGGGGAGATGNGG; listed as DNA, chemistry not given here) | 0.2823 | −0.4562
34 | BCL_01991_H_exon2 (guide CGTCATCCTCTGGCGTGACCNGGRC; listed as DNA, chemistry not given here) | 0.8523 | −0.7166
35 | BCL_00135_H_D58 (guide CCATCTCCCTAATCTCCAATNGG; listed as DNA, chemistry not given here) | 0.2985 | −0.04502
36 | BCL_00248_H_exon2 (guide ACAGATGATGAACCAGACCANGG; listed as DNA, chemistry not given here) | 1.609 | −2.532
37 | BCL_00225_H_D62 (guide ACCTGTAATCCCAGCACTTTNGG; listed as DNA, chemistry not given here) | 0.3328 | −8.821
